Data published in ChEMBL document CHEMBL4513137, “CO-ADD screening of University of Manchester (UK) compounds”.
Converted amounts (≈) assume the structure as drawn.

Assays:
Klebsiella pneumoniae = assay: microbe, parasite or virus in culture; conditions: ATCC 700603, 18 h, ASSAY_TEST Inhibition of Bacterial Growth, detection method Absorption (OD600), MEDIA CAMHB, plate type 384well, NBS, CORNING #3640
Description: Antibacterial activity against Klebsiella pneumoniae MDR ATCC 70063 (CO-ADD:GN_003); MIC in CAMBH media using NBS plates, by OD(600)

Escherichia coli = assay: microbe, parasite or virus in culture; conditions: ATCC 25922, 18 h, ASSAY_TEST Inhibition of Bacterial Growth, detection method Absorption (OD600), MEDIA CAMHB, plate type 384well, NBS, CORNING #3640
Description: Antibacterial activity against Escherichia coli ATCC 25922 (CO-ADD:GN_001); MIC in CAMBH media using NBS plates, by OD(600)

Pseudomonas aeruginosa = assay: microbe, parasite or virus in culture; conditions: ATCC 27853, 18 h, ASSAY_TEST Inhibition of Bacterial Growth, detection method Absorption (OD600), MEDIA CAMHB, plate type 384well, NBS, CORNING #3640
Description: Antibacterial activity against Pseudomonas aeruginosa ATCC 27853 (CO-ADD:GN_042); MIC in CAMBH media using NBS plates, by OD(600)

Candida albicans = assay: microbe, parasite or virus in culture; conditions: ATCC 90028, ASSAY_TEST Inhibition of Fungal Growth, detection method Absorption (OD530), plate type 384well, NBS, CORNING #3640
Description: Antifungal activity against Candida albicans ATCC 90028 (CO-ADD:FG_001); MIC in YNB media using NBS plates, by OD630

Acinetobacter baumannii = assay: microbe, parasite or virus in culture; conditions: ATCC 19606, 18 h, ASSAY_TEST Inhibition of Bacterial Growth, detection method Absorption (OD600), MEDIA CAMHB, plate type 384well, NBS, CORNING #3640
Description: Antibacterial activity against Acinetobacter baumannii ATCC 19606 (CO-ADD:GN_034); MIC in CAMBH media using NBS plates, by OD600

Staphylococcus aureus = assay: microbe, parasite or virus in culture; conditions: ATCC 43300, 18 h, ASSAY_TEST Inhibition of Bacterial Growth, detection method Absorption (OD600), MEDIA CAMHB, plate type 384well, NBS, CORNING #3640
Description: Antibacterial activity against Staphylococcus aureus MRSA ATCC 43300 (CO-ADD:GP_020); MIC in CAMBH media, using NBS plates, by OD(600)

HEK293 = assay: cells; type: functional; conditions: Homo sapiens, ATCC CRL1573, HEK293; ASSAY_TEST Inhibition of Cell Viability; detection method Resazurin; Fluorescence (ex560/em590); MEDIA DMEM with 10% FBS; plate type 384well; TC; CORNING #3712; time 18 hr

Description for Cryptococcus neoformans: Antifungal activity against Cryptococcus neoformans H99 ATCC 208821 (CO-ADD:FG_002); MIC in YNB media using NBS plates, by Resazurin OD(600-570)

| MIC (Cryptococcus neoformans) [µg/mL] | MIC (Klebsiella pneumoniae) [µg/mL] | MIC (Escherichia coli) [µg/mL] | MIC (Pseudomonas aeruginosa) [µg/mL] | MIC (Candida albicans) [µg/mL] | MIC (Acinetobacter baumannii) [µg/mL] | MIC (Staphylococcus aureus) [µg/mL] | SMILES | CC50 (HEK293) [µg/mL] |
| --- | --- | --- | --- | --- | --- | --- | --- | --- |
| 32 (≈ 105 µM) | > 32 | > 32 | > 32 | 8 (≈ 26.3 µM) | > 32 | 4 (≈ 13.1 µM) | Cc1ccccc1Nc1ccccc1-c1ccccc1[N+](=O)[O-] | 1.95 (≈ 6.41 µM) |
| 16 (≈ 55.1 µM) | > 32 | > 32 | > 32 | 8 (≈ 27.6 µM) | > 32 | 16 (≈ 55.1 µM) | O=[N+]([O-])c1ccccc1-c1ccccc1Nc1ccccc1 | 2.15 (≈ 7.41 µM) |
| > 32 | > 32 | > 32 | > 32 | 16 (≈ 48.1 µM) | > 32 | > 32 | Cc1cc(C)c(Nc2ccccc2-c2ccccc2[N+](=O)[O-])c(C)c1 | 13.1 (≈ 39.4 µM) |
| > 32 | > 32 | > 32 | > 32 | 4 (≈ 10.6 µM) | > 32 | 32 (≈ 84.8 µM) | Cc1cc(C)c(Nc2ccccc2-c2ccc([N+](=O)[O-])cc2[N+](=O)[O-])c(C)c1 | 15.7 (≈ 41.6 µM) |
| > 32 | > 32 | > 32 | > 32 | 32 (≈ 84.1 µM) | > 32 | > 32 | O=[N+]([O-])c1ccccc1-c1ccccc1N(Cc1ccccc1)c1ccccc1 | 8.14 (≈ 21.4 µM) |

| SMILES | MIC (Cryptococcus neoformans) [µg/mL] | MIC (Klebsiella pneumoniae) [µg/mL] | MIC (Escherichia coli) [µg/mL] | MIC (Pseudomonas aeruginosa) [µg/mL] | MIC (Candida albicans) [µg/mL] | MIC (Acinetobacter baumannii) [µg/mL] | MIC (Staphylococcus aureus) [µg/mL] | CC50 (HEK293) [µg/mL] |
| --- | --- | --- | --- | --- | --- | --- | --- | --- |
| C=C[C@]1(C)C[C@@H](OC(=O)CO)[C@]2(C)[C@H](C)CC[C@]3(CCC(=O)[C@H]32)[C@@H](C)[C@@H]1O [PLEUROMULIN] | > 32 | > 32 | > 32 | > 32 | > 32 | > 32 | 2 (≈ 5.28 µM) | > 32 |
